In US11471468B2, “Methods and systems for conditioning of particulate crystalline materials” (Pearl Therapeutics, Inc., priority 2013, dated 2022):

Columns and labels:
Assay type in all cases: physicochemical
[1] = Residual solvent content by GC analysis
Protocol: Residual solvent content of the material from different batches was also analyzed. […] Residual solvent is partially removed using primary (ethanol) and secondary (water) conditioning.
Compound A (IUPAC: 7-[(1R)-2-[2-[2-fluoro-5-[[4-(2-isopropylthiazole-4-carbonyl)-1-oxa-4,9-diazaspiro[5.5]undecan-9-yl]methyl]phenyl]ethylamino]-1-hydroxy-ethyl]-4-hydroxy-3H-1,3-benzothiazol-2-one; di[[(1S,4R)-7,7-dimethyl-2-oxo-norbornan-1-yl]methanesulfonic acid] salt) was received with a 3.8% ethanol residual content. This material had been previously micronized and conditioned according to the present description to reduce the presence of isopropyl (IPA) and ethanol (EtOH) by solvent exchange/removal. The material was exposed to another conditioning gas that included water vapor, and was mixed with the conditioning gas in a conditioning zone for approximately 1.5 hours.

[2] = Particle size distribution by laser diffraction (Sympatec) after processing; details: for D10 / D50 / D90: Compound A, PSD; for X10: micronized GP, sampled immediately after processing
[3] = as above; details: for D10 / D50 / D90: micronized/annealed GP, scale-up ~1 kg batches, mean of n=3 replicates per collector; for Physical stability after micronization judged from size distribution: laser diffraction, Tables 4 and 5; for X50 / X90: micronized GP, sampled immediately after processing
Excerpt: When referred to herein, the term “optical diameter” indicates the size of a particle as measured using a laser diffraction particle size analyzer equipped with a dry powder dispenser (e.g., Sympatec GmbH, Clausthal-Zellerfeld, Germany).
(§1) A portion of the micronized GP was also conditioned using an in-process conditioning system wherein nitrogen conditioning gas was supplied to the in-process conditioning system and was controlled for flow rate, temperature and humidity. The conditioning gas was humidified through a droplet evaporation chamber after which it was directed to a mixing zone. In the mixing zone, the conditioning gas was mixed with the jet-milled aerosol comprising the micronized GP. The aerosol then entered a conditioning zone where annealing of the micronized GP occurred. The particle residence time through the conditioning zone was adjusted by means of the conditioning zone chamber geometry and/or the gas flow rate through the conditioning zone chamber. After passing through the conditioning zone, the micronized GP particles reached the cyclone-collection zone where the solid particles were separated from the gas phase and transported to a collection vessel. Upon completion of the batch processing, the collector was disengaged and transferred to a glove box for sampling. The sampling occurred in a <5% relative humidity environment. Samples were then analyzed for particle size distribution and amorphous content.
Both micronized sucrose batches were analyzed for particle size distribution by Sympatec laser diffraction.

[4] = Amorphous content by (dynamic) vapor sorption; details: for Calculated Amorphous Content, Collector 1 / Calculated Amorphous Content, Collector 2: conditioned GP, dynamic vapor sorption, n=2 replicates per collector; for % Amorphous Content Initial: micronized GP batches
Excerpt: as §1
The amorphous content by vapor sorption and particle morphology for both batches were also assessed. FIG. 9 provides the ethanol vapor sorption isotherm at 25° C. for both batches of micronized budesonide.
The amorphous content by vapor sorption and particle morphology for both batches were also assessed. FIG. 11 provides the ethanol vapor sorption isotherm at 25° C. for both batches of micronized fluticasone.
All batches were also analyzed for amorphous content by dynamic vapor sorption using n=2 replicates per collector.
The amorphous content by vapor sorption and particle morphology for both batches of micronized sucrose were also assessed. FIG. 13 provides the water vapor sorption isotherm at 25° C. for both batches of micronized sucrose.

[5] = Compound A batches of Example 6, residual solvent, listed as Compound A, 30° C./55% RS, 30° C./70% RH
[6] = Compound A batches of Example 6
[7] = Compound A batches of Example 6, residual solvent
[8] = Compound A batches of Example 6, residual solvent, listed as Compound A, Raw (un-milled)
[9] = micronized Compound A of Example 7, before/after about […] with water-vapor conditioning gas
[10] = listed as Batch A - Collector 1
[11] = listed as Batch A - Collector 2
[12] = listed as Batch B - Collector 1
[13] = listed as Batch B - Collector 2
[14] = listed as Batch C - Collector 1
[15] = listed as Batch C - Collector 2

## 7-[(1R)-2-[2-[2-fluoro-5-[[4-(2-isopropylthiazole-4-carbonyl)-1-oxa-4,9-diazaspiro[5.5]undecan-9-yl]methyl]phenyl]ethylamino]-1-hydroxy-ethyl]-4-hydroxy-3H-1,3-benzothiazol-2-one; di[[(1S,4R)-7,7-dimethyl-2-oxo-norbornan-1-yl]methanesulfonic acid] salt [Compound A, 30° C./55% RS (ethanol); 30° C./70% RH (water)]
[1]; [5]
  % EtOH (w/w): 1.2% (w/w)
  % IPA (w/w): 2.1% (w/w)
[1]; Compound A batches of Example 6, listed as Compound A, 30° C./55% RS, 30° C./70% RH
  % Water: 3.4%
[2]
  D10: 0.6 μm
  D50: 1.7 μm
  D90: 3.2 μm

## 7-[(1R)-2-[2-[2-fluoro-5-[[4-(2-isopropylthiazole-4-carbonyl)-1-oxa-4,9-diazaspiro[5.5]undecan-9-yl]methyl]phenyl]ethylamino]-1-hydroxy-ethyl]-4-hydroxy-3H-1,3-benzothiazol-2-one; di[[(1S,4R)-7,7-dimethyl-2-oxo-norbornan-1-yl]methanesulfonic acid] salt [Compound A, 30° C./70% RH]
[1]; [6]
  % Water: 3.4%
[1]; [7]
  % EtOH (w/w): 0.1% (w/w)
  % IPA (w/w): 3.6% (w/w)
[2]
  D10: 0.6 μm
  D50: 1.6 μm
  D90: 3.1 μm

## 7-[(1R)-2-[2-[2-fluoro-5-[[4-(2-isopropylthiazole-4-carbonyl)-1-oxa-4,9-diazaspiro[5.5]undecan-9-yl]methyl]phenyl]ethylamino]-1-hydroxy-ethyl]-4-hydroxy-3H-1,3-benzothiazol-2-one; di[[(1S,4R)-7,7-dimethyl-2-oxo-norbornan-1-yl]methanesulfonic acid] salt [Compound A, Raw (Un-milled)]
[1]; [8]
  % EtOH (w/w): 0.0% (w/w)
  % IPA (w/w): 4.7% (w/w)
[1]; Compound A batches of Example 6, listed as Compound A, Raw (un-milled)
  % Water: 3.1%
[2]
  D10: 1.1 μm
  D50: 3.7 μm
  D90: 16.3 μm

## 7-[(1R)-2-[2-[2-fluoro-5-[[4-(2-isopropylthiazole-4-carbonyl)-1-oxa-4,9-diazaspiro[5.5]undecan-9-yl]methyl]phenyl]ethylamino]-1-hydroxy-ethyl]-4-hydroxy-3H-1,3-benzothiazol-2-one; di[[(1S,4R)-7,7-dimethyl-2-oxo-norbornan-1-yl]methanesulfonic acid] salt [Compound A, Unannealed]
[1]; [6]
  % Water: 3.0%
[1]; [7]
  % EtOH (w/w): 0.2% (w/w)
  % IPA (w/w): 3.9% (w/w)
[2]
  D10: 0.6 μm
  D50: 1.6 μm
  D90: 3.1 μm

## 7-[(1R)-2-[2-[2-fluoro-5-[[4-(2-isopropylthiazole-4-carbonyl)-1-oxa-4,9-diazaspiro[5.5]undecan-9-yl]methyl]phenyl]ethylamino]-1-hydroxy-ethyl]-4-hydroxy-3H-1,3-benzothiazol-2-one; di[[(1S,4R)-7,7-dimethyl-2-oxo-norbornan-1-yl]methanesulfonic acid] salt [Compound A]
[1]; Compound A as received, Example 7
  Ethanol residual content as received: 3.8%
[1]; Compound A before micronization, Example 6
  Residual isopropyl alcohol solvent after manufacture: ~5%

## 7-[(1R)-2-[2-[2-fluoro-5-[[4-(2-isopropylthiazole-4-carbonyl)-1-oxa-4,9-diazaspiro[5.5]undecan-9-yl]methyl]phenyl]ethylamino]-1-hydroxy-ethyl]-4-hydroxy-3H-1,3-benzothiazol-2-one; di[[(1S,4R)-7,7-dimethyl-2-oxo-norbornan-1-yl]methanesulfonic acid] salt [Micronized Compound A, 30° C./70% RH (water)]
[1]; [9]
  % EtOH (w/w): 0.1% (w/w)
  % IPA (w/w): 0.0% (w/w)
  % Water: 3.6%

## 7-[(1R)-2-[2-[2-fluoro-5-[[4-(2-isopropylthiazole-4-carbonyl)-1-oxa-4,9-diazaspiro[5.5]undecan-9-yl]methyl]phenyl]ethylamino]-1-hydroxy-ethyl]-4-hydroxy-3H-1,3-benzothiazol-2-one; di[[(1S,4R)-7,7-dimethyl-2-oxo-norbornan-1-yl]methanesulfonic acid] salt [Micronized Compound A, As Received]
[1]; [9]
  % EtOH (w/w): 3.8% (w/w)
  % IPA (w/w): 0.1% (w/w)
  % Water: 3.1%

## C[N+]1(C)CCC(OC(=O)C(O)(c2ccccc2)C2CCCC2)C1 (single isomer, unassigned) [Batch A, Glycopyrrolate]
[3]; [10]
  D10: 0.52 μm
  D50: 1.48 μm
  D90: 3.02 μm
[3]; [11]
  D10: 0.52 μm
  D50: 1.47 μm
  D90: 2.99 μm
[4]
  Calculated Amorphous Content, Collector 1: 2.65%
  Calculated Amorphous Content, Collector 2: 2.35%

## C[N+]1(C)CCC(OC(=O)C(O)(c2ccccc2)C2CCCC2)C1 (single isomer, unassigned) [Batch B, Glycopyrrolate]
[3]; [12]
  D10: 0.52 μm
  D50: 1.47 μm
  D90: 3.02 μm
[3]; [13]
  D10: 0.52 μm
  D50: 1.46 μm
  D90: 2.99 μm
[4]
  Calculated Amorphous Content, Collector 1: 2.65%
  Calculated Amorphous Content, Collector 2: 2.40%

## C[N+]1(C)CCC(OC(=O)C(O)(c2ccccc2)C2CCCC2)C1 (single isomer, unassigned) [Batch C, Glycopyrrolate]
[3]; [14]
  D10: 0.52 μm
  D50: 1.47 μm
  D90: 3.03 μm
[3]; [15]
  D10: 0.51 μm
  D50: 1.45 μm
  D90: 2.96 μm
[4]
  Calculated Amorphous Content, Collector 1: 2.65%
  Calculated Amorphous Content, Collector 2: 2.45%

## C[N+]1(C)CCC(OC(=O)C(O)(c2ccccc2)C2CCCC2)C1 (centres unmarked) [Batch 1A, Glycopyrrolate]
[4]
  % Amorphous Content Initial: 17.9%

## C[N+]1(C)CCC(OC(=O)C(O)(c2ccccc2)C2CCCC2)C1 (centres unmarked) [Batch 2B, Glycopyrrolate]
[4]
  % Amorphous Content Initial: 5.3%

## C[N+]1(C)CCC(OC(=O)C(O)(c2ccccc2)C2CCCC2)C1 (centres unmarked) [Batch 2C, Glycopyrrolate]
[4]
  % Amorphous Content Initial: 0.9%

## C[N+]1(C)CCC(OC(=O)C(O)(c2ccccc2)C2CCCC2)C1 (centres unmarked) [Batch 2D, Glycopyrrolate]
[4]
  % Amorphous Content Initial: 0.9%

## C[N+]1(C)CCC(OC(=O)C(O)(c2ccccc2)C2CCCC2)C1 (centres unmarked) [Batch 2E, Glycopyrrolate]
[4]
  % Amorphous Content Initial: 2.6%

## C[N+]1(C)CCC(OC(=O)C(O)(c2ccccc2)C2CCCC2)C1 (centres unmarked) [Batch 2F, Glycopyrrolate]
[4]
  % Amorphous Content Initial: 0.9%

## C[N+]1(C)CCC(OC(=O)C(O)(c2ccccc2)C2CCCC2)C1 (centres unmarked) [Batch 2G, Glycopyrrolate]
[4]
  % Amorphous Content Initial: 2.3%

## CCCC1O[C@@H]2C[C@H]3[C@@H]4CCC5=CC(=O)C=C[C@]5(C)[C@H]4[C@@H](O)C[C@]3(C)[C@]2(C(=O)CO)O1 (some centres unmarked) [Micronized Budesonide, Batch 1 (unannealed)]
[3]
  Physical stability after micronization judged from size distribution: potential agglomeration

## CCCC1O[C@@H]2C[C@H]3[C@@H]4CCC5=CC(=O)C=C[C@]5(C)[C@H]4[C@@H](O)C[C@]3(C)[C@]2(C(=O)CO)O1 (some centres unmarked) [Micronized Budesonide, Batch 2 (annealed)]
[3]
  Physical stability after micronization judged from size distribution: good physical stability

## C[N+]1(C)CCC(OC(=O)C(O)(c2ccccc2)C2CCCC2)C1 (centres unmarked) [Micronized GP, In-Process Conditioning, Glycopyrrolate]
[3]
  X50: 1.5 μm
  X90: 3.1 μm
[2]
  X10: 0.6 μm

## C[N+]1(C)CCC(OC(=O)C(O)(c2ccccc2)C2CCCC2)C1 (centres unmarked) [Micronized GP, Standard Jet Milling, Glycopyrrolate]
[3]
  X50: 1.4 μm
  X90: 3.0 μm
[2]
  X10: 0.5 μm
